Test: RP, Hichrom Alltima HP C18, 150 × 2.1 mm, 3 µm, 0.2 mL/min, estimated dead time 1.7 min; A: 90% water + 5% acetonitrile + 5% formic acid; B: acetonitrile; gradient (min/%B) 0/0 5/10 25/20 30/25 45/70 65/0
Settings: stereoisomer not certain

Compound	LC retention time [min]
O=C(O)CC(O)(CC(=O)O)C(=O)O [citric acid]	3.04
OCC1OC(Oc2cc3c(O)cc(O)cc3[o+]c2-c2ccc(O)c(O)c2)C(O)C(O)C1O (configuration not stated) [cyanidin-3-O-glucoside]	14.4
O=C(C=Cc1ccc(O)cc1)OCC1OC(Oc2cc3c(O)cc(=O)cc-3oc2-c2ccc(O)c(O)c2)C(O)C(O)C1O (stereo not drawn) [cyanidin-(coumaroyl)-3-O glucoside, trans isomer]	27.6
OCC1OC(Oc2cc3c(O)cc(O)cc3[o+]c2-c2cc(O)c(O)c(O)c2)C(O)C(O)C1O (configuration not stated) [delfinidin-3-O-glucoside]	12.5
OCC1OC(OC2(CO)OC(CO)C(O)C2O)C(O)C(O)C1O (configuration not stated) [di-hexose (sucrose)]	2.52
CC1OC(OC2C(=O)c3c(O)cc(O)cc3OC2c2ccc(O)c(O)c2)C(O)C(O)C1O (configuration not stated) [dihydroquercetin-O-deoxyhexoside (astilbin)]	19.8
O=C(O)C(O)C(O)C(O)C(O)CO (configuration not stated) [gluconic acid]	2.37
NC(CCC(=O)NC(CS)C(=O)NCC(=O)O)C(=O)O (configuration not stated) [glutathione]	3.04
OCC1OC(O)C(O)C(O)C1O (configuration not stated) [hexose]	2.4
O=C(O)CC(O)C(=O)O (configuration not stated) [malic acid]	2.72
COc1cc(-c2oc3cc(=O)cc(O)c-3cc2OC2OC(CO)C(O)C(O)C2O)cc(OC)c1O (configuration not stated) [malvidin-3-O-glucoside]	18
O=C(OC1OC(CO)C(O)C(O)C1O)c1cc(O)c(O)c(O)c1 (configuration not stated) [monogalloyl glucose]	3.53
COc1cc(-c2[o+]c3cc(O)cc(O)c3cc2OC2OC(CO)C(O)C(O)C2O)ccc1O (configuration not stated) [peonidin-3-O-glucoside]	17.2
COc1cc(-c2[o+]c3cc(O)cc(O)c3cc2OC2OC(CO)C(O)C(O)C2O)cc(O)c1O (configuration not stated) [petunidin-3-O-glucoside]	15.6
O=C(O)C1OC(Oc2c(-c3ccc(O)c(O)c3)oc3cc(O)cc(O)c3c2=O)C(O)C(O)C1O (configuration not stated) [quercetin glucuronide]	20
O=C(O)C(O)C(O)C(=O)O (configuration not stated) [tartaric acid]	2.52
NC(Cc1cn(C2OC(CO)C(O)C(O)C2O)c2ccccc12)C(=O)O (configuration not stated) [tryptophan-N-glucoside]	15.8
